From patent publication US7932422B2, “Use of chlorine guanabenz derivatives for treating polyglutamine expansion associated diseases” (priority 2006, dated 2011)
“Also recorded” adds a separate entry of the source. Counter-ions that a name gives are not always drawn.

Experiments:
[1] = test system: aggregated Htt48 in 293T cells; test: filter retardation assay of lysates of Htt48-transfected 293T cells; type: cell-based; details: lysates 48 h post-transfection
[2] = test system: full length endogenous Huntingtin in 293T cells; test: immunoblot of full length endogenous Huntingtin in 293T cells; type: cell-based; details: same extracts as for the N-terminal fragment
Description: b: 293T cells were transfected with Htt48 and treated with the indicated compounds in DMSO at the indicated doses or DMSO alone 4 h posttransfection. SDS lysates collected 48 h post-transfection were analyzed on a 10% SDS-PAGE followed by immunoblot with Htt 2B4 and vimentin antibodies. To reveal full length Huntingtin, the same extracts were analyzed on a 4.5% SDS-PAGE followed by immunoblot PAGE followed by immunoblot with an oligoclonal mixture of Huntingtin antibodies: 2B4, 4C8 and 2E8.
(§1) Psi114 and Cl-Psi114 reduce polyQ accumulation both in their soluble and insoluble form. In developing therapeutic approaches, targeting specifically the pathogenic fragment of Huntingtin is a fundamental concern because Huntingtin is an essential gene. The inventors tested the effect of active compounds on endogenous full length Huntingtin in the same extracts as tested for the N-terminal fragment of Huntingtin. Psi114 and Cl-Psi114 have no effect on the levels of full length endogenous Huntingtin in 293T cells while these 2 compounds effectively reduce accumulation of the N-terminal pathogenic fragment of Huntingtin (FIG. 1b). Cl-Psi114 has also no effect on the level of full length endogenous Huntingtin in HD patient lymphoblastoid cell line.

NG108-15 cells = test: vimentin level in NG108-15 neuronal-like cell model of HD; type: cell-based; details: drugs added 12 h post-induction, extracts 3 days after treatment
Description: (§2) NG108-15 cells were induced for differentiation and T73 expression as described in Lunkes et al, 2002 and treated with the indicated compounds in DMSO at the indicated doses or DMSO alone 12 h post-induction. SDS lysates collected […] were analyzed by SDS-PAGE followed by immunoblot with Htt 2B4 and vimentin antibodies. Images were acquired and quantified with the Chemi-Smart system (Vilber Lourmat). Quantification of T73 signals is presented as histograms. Signal from DMSO treated cells is used as a reference and set as 1.
Drugs were added 12 h post-induction at the indicated doses. Protein extracts were collected 3 days after treatment and analyzed by immunoblots. […] The aggregates formed in these cells were below the detection level of the filter retardation assay precluding a robust quantitative analysis of the effects of the molecules on aggregate. However, because both aggregates and pathological symptoms are reversible with blockade of pathological protein expression, it is likely that aggregates in NG108-15 cells will diminish as a consequence of decreased accumulation of T73 by treating neurons with Psi114 or Cl-Psi114.

yeast prions = type: cell-based; details: erg6Δ [PSI+] yeast strain, compound spotted on filter, halo of red [psi-] colonies
[3] = test system: full length endogenous Huntingtin in HD patient lymphoblastoid cell line; test: full length endogenous Huntingtin in HD patient lymphoblastoid cell line; type: cell-based
Excerpt: as §1

[4] = test system: truncated huntingtin with 73Q repeats (T73) in NG108-15 cells; test: NG108-15 neuronal-like cell model of HD, immunoblot of T73; type: cell-based; details: drugs added 12 h post-induction, extracts 3 days after treatment
Description: as §2
The Guanabenz (Psi114) and Chloroguanabenz (Cl-Psi114) effects were so far tested in actively dividing yeast and 293T cells (Lunkes et al., 1998). Because neurons are the target of Huntington and the threat for accumulation of misfolded proteins being exacerbated in neuronal, post-mitotic cells, the inventors next tested the effect of Psi114 and Cl-Psi114 in NG10815 neuronal-like cell model of HD. NG108-15 cells were induced for expression of truncated huntingtin with 73Q repeats (T73) and differentiation.
Drugs were added 12 h post-induction at the indicated doses. Protein extracts were collected 3 days after treatment and analyzed by immunoblots. […] The aggregates formed in these cells were below the detection level of the filter retardation assay precluding a robust quantitative analysis of the effects of the molecules on aggregate. […]

[5] = test system: N-terminal fragment of Huntingtin derivative with 48 glutamines (Htt48) in 293T cells; test: 293T cells transfected with Htt48, immunoblot of SDS lysates with Htt 2B4 antibody; type: cell-based; details: for activity on Htt48 accumulation: 293T cells, up to 100 μM

## N=C(N)N/N=C/c1c(Cl)ccc(Cl)c1Cl [Cl-Psi114, Chloroguanabenz]
[1]
  levels of aggregated Htt48: decrease in a dose dependent manner
[2]
  effect on levels of full length endogenous Huntingtin: no effect
NG108-15 cells
  vimentin level: remains unaltered
Yeast prions
  activity in the yeast anti-prion screen: active; also recorded: more active in the yeast anti-prion screen that Psi114
[3]
  effect on level of full length endogenous Huntingtin: no effect
[4]
  T73 level: reduction of T73 in a dose dependant manner

## CCC1(C2=NCCN2)Cc2ccccc2O1 (centres unmarked) [Psi216, Efaroxan]
[5]
  activity on Htt48 accumulation: completely inactive

## N=C(N)N/N=C/c1c(Cl)cccc1Cl [Psi114, Guanabenz]
[1]
  levels of aggregated Htt48: decrease in a dose dependent manner; also recorded: delayed
[2]
  effect on levels of full length endogenous Huntingtin: no effect
NG108-15 cells
  vimentin level: remains unaltered
Yeast prions
  activity in the yeast anti-prion screen: potent activity against yeast prions; also recorded: active in yeast cells
[4]
  T73 level: reduction of T73 in a dose dependant manner

## N=C(N)N [GuHCL, guanidine hydrochloride]
Yeast prions
  activity in the yeast anti-prion screen: positive control

## C1COC(NC(C2CC2)C2CC2)=N1 [Psi215, Rilmenidine]
293T cells
  toxicity: some toxicity

## Clc1cccc(Cl)c1N=C1NCCN1 [Psi211, Clonidine]
[5]
  activity on Htt48 accumulation: completely inactive

## c1ccc(C2CC2)c(OCC2=NCCN2)c1 [Psi214, Cirazoline]
293T cells
  toxicity: some toxicity

## Nc1c(/N=N/c2ccc(-c3ccc(/N=N/c4cc(S(=O)(=O)O)c5ccccc5c4N)cc3)cc2)cc(S(=O)(=O)O)c2ccccc12 [Congo red]
[5]; dose of 500 μM
  activity in the Htt48 293T system: barely detectable activity
